These results are taken from US11203600B2 (Denali Therapeutics Inc., priority 2017, dated 2021).

In general, IC50 refers to the midpoint of a concentration-inhibition curve. High values mean weaker potency, low ones greater potency.

The structures appear in SMILES notation. Where only a bound is given, the exact number is not on record here.

Sequence of GST-hRIPK1 (8-327) (Q13546 8-327): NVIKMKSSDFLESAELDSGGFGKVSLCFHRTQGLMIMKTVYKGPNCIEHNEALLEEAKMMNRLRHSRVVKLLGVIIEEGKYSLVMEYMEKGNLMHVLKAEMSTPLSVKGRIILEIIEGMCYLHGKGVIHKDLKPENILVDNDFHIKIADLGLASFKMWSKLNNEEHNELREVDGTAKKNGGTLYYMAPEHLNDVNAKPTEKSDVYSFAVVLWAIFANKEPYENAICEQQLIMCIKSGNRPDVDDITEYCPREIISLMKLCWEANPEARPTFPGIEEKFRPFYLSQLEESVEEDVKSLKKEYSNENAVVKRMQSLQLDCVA

One test has as its target GST-hRIPK1 (8-327) (Homo sapiens (Human), UniProt Q13546). Nature of the test: Fluorescent Polarization Binding (FP Binding) assay, RIPK1. The settings on record: 10 nM GST-hRIPK1 (8-327), 5 nM fluorescent-labeled ligand, RT, 30 min, mean of at least two independent experiments. The essentials: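 Binding by fluorescence polarisation at RT: 10 nM baculovirus-expressed GST-hRIPK1 (8-327) and 5 nM fluorescent ligand, 30 min, in 50 mM HEPES pH 7.5, 50 mM MgCl2, 0.02% CHAPS, 1% DMSO. FP read at ex 531/em 595 nm. IC50 from normalised percent inhibition, mean of ≥2 experiments.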
The compound `N#Cc1cncc2c1OCCN(C(=O)C13CC(COc4ncc(F)cn4)(C1)C3)C2` [Example 93, 4-(3-(((5-fluoropyrimidin-2-yl)oxy)methyl)bicyclo[1.1.1]pentane-1-carbonyl)-2,3,4,5-tetrahydropyrido[3,4-f][1,4]oxazepine-9-carbonitrile] displayed an IC50 of 100 to 1000 nM. Still for that read-out and setting: the value for `N#Cc1cncc2c1OCCN(C(=O)C1CCN(c3ncc(F)c(OCC(F)F)n3)CC1)C2` [Example 131, 4-(1-(4-(2,2-difluoroethoxy)-5-fluoropyrimidin-2-yl)piperidine-4-carbonyl)-2,3,4,5-tetrahydropyrido[3,4-f][1,4]oxazepine-9-carbonitrile] was 0.1 to 100 nM; that for `COc1nc(N2CCC(F)(C(=O)N3CCOc4c(C#N)cncc4C3)CC2)nc2ccccc12` [Example 197, 4-[4-fluoro-1-(4-methoxyquinazolin-2-yl)piperidine-4-carbonyl]-3,5-dihydro-2H-pyrido[3,4-f][1,4]oxazepine-9-carbonitrile] was 100 to 1000 nM; that for `CC(C(=O)N1CCOc2c(C#N)cncc2C1)(C(F)(F)F)C(F)(F)F` [Example 152, 4-[3,3,3-trifluoro-2-methyl-2-(trifluoromethyl)propanoyl]-3,5-dihydro-2H-pyrido[3,4-f][1,4]oxazepine-9-carbonitrile] was 100 to 1000 nM. On to `CC(C)(C(=O)N1CCOc2ccccc2C1)C(F)F` [Example 7, 1-(3,5-dihydro-2H-1,4-benzoxazepin-4-yl)-3,3-difluoro-2,2-dimethyl-propan-1-one], for which the half-maximal inhibitory concentration (IC50) lay in the range of 0.1 to 100 nM. Compound `CC(C(=O)N1CCOc2c(C#N)cncc2C1)C1CC1` (centres unmarked) [Example 146, 4-(2-cyclopropylpropanoyl)-3,5-dihydro-2H-pyrido[3,4-f][1,4]oxazepine-9-carbonitrile] displayed an IC50 of 100 to 1000 nM. The compound `N#Cc1cncc2c1OCCN(C(=O)C1(F)CCN(c3cc4ccccc4cn3)CC1)C2` [Example 199, 4-[4-fluoro-1-(3-isoquinolyl)piperidine-4-carbonyl]-3,5-dihydro-2H-pyrido[3,4-f][1,4]oxazepine-9-carbonitrile] registered an IC50 of 0.1 to 100 nM. Still for that read-out and setting: the value for `CC(C)(CSc1ncc(F)cn1)C(=O)N1CCOc2c(C#N)cncc2C1` [Example 181] was > 1000 nM.

In turn, `COc1nc(N2CCC(F)(C(=O)N3CCOc4c(C#N)cncc4C3)CC2)ncc1F` [Example 191, 4-[4-fluoro-1-(5-fluoro-4-methoxy-pyrimidin-2-yl)piperidine-4-carbonyl]-3,5-dihydro-2H-pyrido[3,4-f][1,4]oxazepine-9-carbonitrile] came in with an IC50 of 0.1 to 100 nM. The same measure, in the same setting: the value for `CC(C)(CC(F)(F)F)C(=O)N1CCOc2c(C#N)cncc2C1` [Example 47, 4-(4,4,4-trifluoro-2,2-dimethyl-butanoyl)-3,5-dihydro-2H-pyrido[3,4-f][1,4]oxazepine-9-carbonitrile] was 0.1 to 100 nM. For the compound `CC(C)(Cl)C(=O)N1CCOc2c(C#N)cncc2C1` [Example 158, 4-(2-chloro-2-methyl-propanoyl)-3,5-dihydro-2H-pyrido[3,4-f][1,4]oxazepine-9-carbonitrile], the IC50 lay in the range of 0.1 to 100 nM.

For `N#Cc1cncc2c1OCCN(C(=O)C1(F)CCN(c3ccnc4nccn34)CC1)C2` [Example 180], the IC50 is 100 to 1000 nM. The same measure, in the same setting: the value for `N#Cc1cncc2c1OCCN(C(=O)C1(F)CCN(c3ncccn3)CC1)C2` [Example 157, 4-(4-fluoro-1-pyrimidin-2-yl-piperidine-4-carbonyl)-3,5-dihydro-2H-pyrido[3,4-f][1,4]oxazepine-9-carbonitrile] was 0.1 to 100 nM. Regarding `O=C(C1CC(F)(F)C1)N1CCOc2ccccc2C1` [Example 1, (3,3-difluorocyclobutyl)(2,3-dihydrobenzo[f][1,4]oxazepin-4(5H)-yl)methanone], the IC50 is > 1000 nM. On the same count and under the same terms, the value for `N#Cc1cncc2c1OCCN(C(=O)C1(F)CCN(c3ncc(F)cc3F)CC1)C2` [Example 192, 4-[1-(3,5-difluoro-2-pyridyl)-4-fluoro-piperidine-4-carbonyl]-3,5-dihydro-2H-pyrido[3,4-f][1,4]oxazepine-9-carbonitrile] was 0.1 to 100 nM; that for `CC(C)(CCF)C(=O)N1CCOc2c(C#N)cncc2C1` [Example 60, 4-(4-fluoro-2,2-dimethyl-butanoyl)-3,5-dihydro-2H-pyrido[3,4-f][1,4]oxazepine-9-carbonitrile] was 100 to 1000 nM. `N#Cc1cncc2c1OCCN(C(=O)C1(F)CCN(c3cnccn3)CC1)C2` [Example 87, 4-(4-fluoro-1-pyrazin-2-yl-piperidine-4-carbonyl)-3,5-dihydro-2H-pyrido[3,4-f][1,4]oxazepine-9-carbonitrile] displayed a 50% inhibitory concentration (IC50) of 100 to 1000 nM. `CC(C(=O)N1CCOc2c(C#N)cncc2C1)(C(F)F)C1CC1` (centres unmarked) [Example 56, 4-(2-cyclopropyl-3,3-difluoro-2-methyl-propanoyl)-3,5-dihydro-2H-pyrido[3,4-f][1,4]oxazepine-9-carbonitrile] had an IC50 of 0.1 to 100 nM. `CCC(C)(C(=O)N1CCOc2c(C#N)cncc2C1)C(F)F` (centres unmarked) [Example 57, 4-(2-(difluoromethyl)-2-methylbutanoyl)-2,3,4,5-tetrahydropyrido[3,4-f][1,4]oxazepine-9-carbonitrile] displayed an IC50 of 0.1 to 100 nM.

Compound `N#Cc1cncc2c1OCCN(C(=O)C1(F)CCN(c3ccnc(C(F)(F)F)n3)CC1)C2` [Example 171] displayed an IC50 of 100 to 1000 nM. Turning to `CC1(C(=O)N2CCOc3c(C#N)cncc3C2)CC(F)(F)C1` [Example 138, 4-(3,3-difluoro-1-methyl-cyclobutanecarbonyl)-3,5-dihydro-2H-pyrido[3,4-f][1,4]oxazepine-9-carbonitrile], the IC50 lay within 100 to 1000 nM. Compound `CC(C)(C(=O)N1CCOc2ccc(F)cc2C1)C(F)F` [Example 33, 3,3-difluoro-1-(7-fluoro-2,3,4,5-tetrahydro-1,4-benzoxazepin-4-yl)-2,2-dimethylpropan-1-one] came in with an IC50 of 0.1 to 100 nM.

Staying with this test, now noted: GST-hRIPK1 (8-327), mean of at least two independent experiments.
The compound `O=C(C1CCN(c2ccnc3c(F)cnn23)C[C@@H]1F)N1CCOc2c(F)cncc2C1` (stereo partly drawn) [Example 256, (9-fluoro-3,5-dihydro-2H-pyrido[3,4-f][1,4]oxazepin-4-yl)-[(3,4)-trans-3-fluoro-1-(3-fluoropyrazolo[1,5-a]pyrimidin-7-yl)-4-piperidyl]methanone] registered an IC50 of 0.1 to 100 nM.

As for `N#Cc1cncc2c1OCCN(C(=O)C1CCN(c3ncc(F)cn3)C[C@@H]1F)C2` (stereo partly drawn) [Example 241, 4-[(3,4)-cis-3-fluoro-1-(5-fluoropyrimidin-2-yl)piperidine-4-carbonyl]-3,5-dihydro-2H-pyrido[3,4-f][1,4]oxazepine-9-carbonitrile], the IC50 was 100 to 1000 nM. In turn, `N#Cc1cncc2c1OCCN(C(=O)C1(F)CCN(c3ncc(F)c(C4CC4)n3)CC1)C2` [Example 201, 4-[1-(4-cyclopropyl-5-fluoro-pyrimidin-2-yl)-4-fluoro-piperidine-4-carbonyl]-3,5-dihydro-2H-pyrido[3,4-f][1,4]oxazepine-9-carbonitrile] showed an IC50 of 0.1 to 100 nM. Compound `CC(C)(C(=O)N1CCOc2c(C#N)cncc2C1)C1CC(OC(F)(F)F)C1` (centres unmarked) [Example 279, 4-[2-methyl-2-[3-(trifluoromethoxy)cyclobutyl]propanoyl]-3,5-dihydro-2H-pyrido[3,4-f][1,4]oxazepine-9-carbonitrile] came in with an IC50 of 0.1 to 100 nM. The same measure, in the same setting: the value for `COc1nc(N2CCC(C(=O)N3CCOc4c(F)cncc4C3)CC2)ncc1F` [Example 236] was 0.1 to 100 nM; that for `CC1(C(=O)N2CCOc3c(C#N)cncc3C2)CCN(c2ncc(F)cn2)CC1F` (single isomer, unassigned) [Example 299, 4-[3-Fluoro-1-(5-fluoropyrimidin-2-yl)-4-methyl-piperidine-4-carbonyl]-3,5-dihydro-2H-pyrido[3,4-f][1,4]oxazepine-9-carbonitrile] was 0.1 to 100 nM; that for `COc1nc(N2CCC(C(=O)N3CCCc4ccccc4C3)CC2)ncc1F` [Example 237, [1-(5-fluoro-4-methoxy-pyrimidin-2-yl)-4-piperidyl]-(1,3,4,5-tetrahydro-2-benzazepin-2-yl)methanone] was 0.1 to 100 nM. On the same count and under the same terms, the value for `Cc1ncc2c(c1C#N)OCCN(C(=O)C(C)(C)C(F)F)C2` [Example 262, 4-(3,3-difluoro-2,2-dimethyl-propanoyl)-8-methyl-3,5-dihydro-2H-pyrido[3,4-f][1,4]oxazepine-9-carbonitrile] was 100 to 1000 nM; that for `O=C(C1=CCN(c2ncc(F)cn2)CC1)N1CCOc2c(F)cncc2C1` [Example 248] was 100 to 1000 nM.

For the compound `N#Cc1cncc2c1OCC1(CC1)N(C(=O)C1CCN(c3ncc(F)cn3)CC1)C2` [Example 230, 4-[1-(5-fluoropyrimidin-2-yl)piperidine-4-carbonyl]spiro[2,5-dihydropyrido[3,4-f][1,4]oxazepine-3,1′-cyclopropane]-9-carbonitrile], the IC50 lay in the range of 100 to 1000 nM. Same read-out and setting: the value for `N#Cc1cncc2c1OCCN(C(=O)C1CCN(c3ccnc4ccnn34)CC1(F)F)C2` (centres unmarked) [Example 221, 4-(3,3-difluoro-1-pyrazolo[1,5-a]pyrimidin-7-yl-piperidine-4-carbonyl)-3,5-dihydro-2H-pyrido[3,4-f][1,4]oxazepine-9-carbonitrile] was 100 to 1000 nM.

Compound `O=C(C1CCN(c2ncc(F)cn2)C[C@@H]1F)N1CCOc2ccncc2C1` (stereo partly drawn) [Example 254, 3,5-dihydro-2H-pyrido[3,4-f][1,4]oxazepin-4-yl-[(3,4)-trans-3-fluoro-1-(5-fluoropyrimidin-2-yl)-4-piperidyl]methanone] displayed a 50% inhibitory concentration (IC50) of 100 to 1000 nM.

For `N#Cc1cncc2c1OCCN(C(=O)C1(F)CCN(c3nc(Cl)ncc3F)CC1)C2` [Example 202, 4-[1-(2-chloro-5-fluoro-pyrimidin-4-yl)-4-fluoro-piperidine-4-carbonyl]-3,5-dihydro-2H-pyrido[3,4-f][1,4]oxazepine-9-carbonitrile], the half-maximal inhibitory concentration (IC50) is 0.1 to 100 nM.
